The text below walks through data of PubChem BioAssay (NCI).

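In this assay, cells in 96-well plates receive the compound at five concentrations for 48 hours. Endpoints are linearly interpolated between the surrounding concentrations. The concentration for 50% growth inhibition is given as GI50. At the TGI there is no net growth.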

Among the test systems are CCRF-CEM leukemia; HL-60(TB) leukemia; HOP-92 NSCLC; LOX IMVI melanoma; MOLT-4 leukemia; NCI-H226 lung; NCI-H522 lung; SK-MEL-2 melanoma; SK-MEL-28 melanoma; SK-OV-3 ovarian.
Common to all, as to assay: growth of human tumour cells (NCI), 48 h

`CNC(=O)c1c(NC(=O)c2ccc(C(C)(C)C)cc2)sc2c1CCC(=O)C2`: the GI50 was 88.6 nM in the assay with CCRF-CEM leukemia; 261 nM in the assay on HL-60(TB) leukemia; 358 nM in the assay with HOP-92 NSCLC; 190 nM with LOX IMVI melanoma; 314 nM in the assay with MOLT-4 leukemia; 558 nM in the assay with NCI-H226 lung. Besides, the GI50 with NCI-H522 lung was 197 nM; with SK-MEL-2 melanoma, 508 nM; in the assay with SK-MEL-28 melanoma, 506 nM; in the assay with SK-OV-3 ovarian, 1400 nM. Moreover, the TGI is more than 20100 nM in the assay with CCRF-CEM leukemia; 1580 nM in the assay with HL-60(TB) leukemia; 2030 nM in the assay on HOP-92 NSCLC; 1310 nM in the assay on LOX IMVI melanoma; 2050 nM in the assay with MOLT-4 leukemia; 1990 nM in the assay with NCI-H226 lung. Besides, the TGI in the assay on NCI-H522 lung stood at 1410 nM; in the assay with SK-MEL-2 melanoma, 1960 nM; in the assay with SK-MEL-28 melanoma, 1870 nM; with SK-OV-3 ovarian, 6170 nM.
In the case of `Cc1cc2c(cc1Cl)S/C(=C/C(=O)O)C(Nc1ccc3ncsc3c1)=NS2(=O)=O`, the GI50 with CCRF-CEM leukemia is 7220 nM; in the assay on HL-60(TB) leukemia it was 9160 nM; in the assay with HOP-92 NSCLC, 7760 nM; with LOX IMVI melanoma, 22400 nM; in the assay with MOLT-4 leukemia, 5500 nM; with NCI-H226 lung, 25300 nM. For the same molecule, the GI50 was 13000 nM in the assay on NCI-H522 lung, more than 29300 nM in the assay with SK-MEL-2 melanoma, 32400 nM in the assay on SK-MEL-28 melanoma and more than 33400 nM in the assay on SK-OV-3 ovarian. Moreover, the TGI with CCRF-CEM leukemia is more than 53500 nM; with HL-60(TB) leukemia it was more than 100000 nM; with HOP-92 NSCLC it was 21500 nM; in the assay with LOX IMVI melanoma, 62900 nM; in the assay on MOLT-4 leukemia it was more than 26800 nM; in the assay on NCI-H226 lung, more than 65300 nM. Also, the TGI with NCI-H522 lung was more than 67600 nM; in the assay with SK-MEL-2 melanoma, more than 61300 nM; with SK-MEL-28 melanoma, more than 60600 nM; with SK-OV-3 ovarian, more than 52000 nM.
Turning to `COc1ncc(Nc2ncc([C@@H](C)N3CCN(S(C)(=O)=O)CC3)cc2-c2nc(C)nc(N)n2)cc1F`, the GI50 in the assay on CCRF-CEM leukemia is 145 nM; with HL-60(TB) leukemia, 21.4 nM; in the assay with HOP-92 NSCLC, less than 10 nM; with LOX IMVI melanoma it was 320 nM; with MOLT-4 leukemia, 40.2 nM; with NCI-H226 lung, 2590 nM. Also, the GI50 with NCI-H522 lung is 1090 nM; in the assay with SK-MEL-2 melanoma, 2050 nM; in the assay on SK-MEL-28 melanoma it was 53.4 nM; in the assay with SK-OV-3 ovarian it was 17.1 nM. The TGI with CCRF-CEM leukemia was more than 54100 nM; in the assay on HL-60(TB) leukemia, more than 57300 nM; with HOP-92 NSCLC, 1190 nM; in the assay with LOX IMVI melanoma it was 12500 nM; in the assay on MOLT-4 leukemia, 4130 nM; with NCI-H226 lung, more than 100000 nM. Also, the TGI is 59100 nM in the assay with NCI-H522 lung, more than 69600 nM in the assay with SK-MEL-2 melanoma, more than 36600 nM with SK-MEL-28 melanoma and 394 nM in the assay on SK-OV-3 ovarian.
Turning to `O=c1[nH]c2ccccc2nc1/C=C(\O)c1ccccc1O`, the TGI with CCRF-CEM leukemia, in the assay with HL-60(TB) leukemia, with HOP-92 NSCLC, with LOX IMVI melanoma, in the assay with MOLT-4 leukemia and in the assay on NCI-H226 lung was more than 100000 nM throughout. In addition, the TGI in the assay with NCI-H522 lung, in the assay with SK-MEL-2 melanoma, in the assay on SK-MEL-28 melanoma and with SK-OV-3 ovarian was more than 100000 nM in each case.
In the case of `CCN(CC)CCCNc1cc(OC)cc2nc3cc(Cl)ccc3nc12`, the GI50 is 2520 nM in the assay on CCRF-CEM leukemia; 2220 nM in the assay on HL-60(TB) leukemia; 1690 nM in the assay with HOP-92 NSCLC; 913 nM in the assay on LOX IMVI melanoma; 1280 nM with MOLT-4 leukemia; 1480 nM with NCI-H226 lung. The GI50 in the assay with NCI-H522 lung was 1340 nM; in the assay on SK-MEL-2 melanoma, 1750 nM; in the assay on SK-MEL-28 melanoma, 1790 nM; in the assay with SK-OV-3 ovarian, 3600 nM. The TGI is 11100 nM in the assay on CCRF-CEM leukemia; 6660 nM in the assay on HL-60(TB) leukemia; 9500 nM in the assay on HOP-92 NSCLC; 2250 nM in the assay on LOX IMVI melanoma; 13700 nM in the assay on MOLT-4 leukemia; 3760 nM in the assay with NCI-H226 lung. Further, the TGI in the assay with NCI-H522 lung is 3080 nM; with SK-MEL-2 melanoma it was 3430 nM; in the assay with SK-MEL-28 melanoma, 3210 nM; in the assay with SK-OV-3 ovarian, 14600 nM.
